From patent US11571418B2, “Platinum compounds that inhibit constitutive STAT3 signaling and induce cell cycle arrest and apoptosis of malignant cells” (H. LEE MOFFITT CANCER CENTER AND RESEARCH INSTITUTE, INC., priority 2011, dated 2023)

Experiments:
[1] = biological target: T1, Stat3 (Mus musculus, UniProt P42227); assay: In vitro Stat3 DNA-binding activity assay, EMSA with hSIE probe; details: pre-incubated 30 min before hSIE probe
T1 construct: Nuclear extract preparation from NIH3T3 stimulated by rhIL-6, NIH3T3/hEGFR stimulated by rhEGF; endogenous in cells; host or cells: NIH3T3/hEGFR fibroblasts stimulated with rhEGF (nuclear extract)
Method: (§1) FIGS. 1A-1E. Inhibition of in vitro Stat3 DNA-binding activity by a platinum complex. Nuclear extracts or cell lysates containing activated Stat1, Stat3 and Stat5, or E2F1 prepared from NIH3T3/hEGFR that are stimulated with EGF or Sf-9 insect cells that are infected with baculovirus expressing Stat1, Stat3, Stat5, or E2F1, respectively, were treated with or without the indicated concentrations of platinum complex, PLATINUM-401 or Cisplatin, for 30 min at room temperature prior to incubation with radiolabeled oligonucleotide probes, and subjected to EMSA analysis. (FIG. 1A) (i) Stat1 and Stat3 binding activities to hSIE probe, (ii) Stat1 and Stat5 binding activities to MGFe probe, and (iii) plot of % oligonucleotide probe-STAT:STAT complexes versus concentration of PLATINUM-401. […] Positions of STAT: STAT-DNA complexes in gel are labeled. In (A) to (C), the control lanes represent DMSO (vehicle)-treatment.
(§2) Nuclear extract preparation and gel shift assays—Nuclear extract preparation from NIH3T3 stimulated by rhIL-6, NIH3T3/hEGFR stimulated by rhEGF, v-Src-transformed fibroblasts (NIH3T3/v-Src) or tumor cell lines and electrophoretic mobility shift assay were carried out as previously described (Turkson et al., 1998; Garcia et al., 1997; Yu et al., 1995). The ^32P-labeled oligonucleotide probes used are hSIE (high affinity sis-inducible element from the c-fos gene, m67 variant, 5′-[…]) (SEQ ID NO:1) that binds Stat1 and Stat3 (Garcia et al., 1997; Wagner et al., 1990) and MGFe (mammary gland factor element from the bovine β-casein gene promoter, 5′-AGATTTCTAGGAATTCAA) (SEQ ID NO:2) for Stat1 and Stat5 binding (49,50). Except where indicated, inhibitor compound was pre-incubated with the nuclear extract for 30 min at room temperature prior to incubation with radiolabeled probe.
Compounds from the NCI 2000 diversity set were screened for inhibition of Stat3 signaling in an in vitro DNA-binding activity assay based on analysis by electrophoretic mobility shift assay (EMSA). A platinum (IV) complex, PLATINUM-401 (NSC 295558) (FIG. 1E), was identified as a potent inhibitor of Stat3 and was further characterized for its anti-Stat3 properties. In the in vitro DNA-binding activity assay, nuclear extracts of equal total protein containing active Stat1, Stat3 and Stat5 were pre-incubated with different concentrations of PLATINUM-401 for 30 min prior to incubation with a [^32P]-labeled oligonucleotide, the m67 high affinity sis-inducible element (hSIE) probe that binds Stat1 and Stat3, or the mammary gland factor element (MGFe) that binds Stat1 and Stat5. Samples were then subjected to EMSA.

[2] = biological target: T2, Stat1 (Mus musculus, UniProt P42225); assay: In vitro Stat1 DNA-binding activity assay, EMSA with hSIE or MGFe probe; details: pre-incubated 30 min before probe
T2 construct: Nuclear extract preparation from NIH3T3 stimulated by rhIL-6, NIH3T3/hEGFR stimulated by rhEGF; endogenous in cells; host or cells: NIH3T3/hEGFR fibroblasts stimulated with rhEGF (nuclear extract)
T2 sequence (P42225 2-749 limits assumed): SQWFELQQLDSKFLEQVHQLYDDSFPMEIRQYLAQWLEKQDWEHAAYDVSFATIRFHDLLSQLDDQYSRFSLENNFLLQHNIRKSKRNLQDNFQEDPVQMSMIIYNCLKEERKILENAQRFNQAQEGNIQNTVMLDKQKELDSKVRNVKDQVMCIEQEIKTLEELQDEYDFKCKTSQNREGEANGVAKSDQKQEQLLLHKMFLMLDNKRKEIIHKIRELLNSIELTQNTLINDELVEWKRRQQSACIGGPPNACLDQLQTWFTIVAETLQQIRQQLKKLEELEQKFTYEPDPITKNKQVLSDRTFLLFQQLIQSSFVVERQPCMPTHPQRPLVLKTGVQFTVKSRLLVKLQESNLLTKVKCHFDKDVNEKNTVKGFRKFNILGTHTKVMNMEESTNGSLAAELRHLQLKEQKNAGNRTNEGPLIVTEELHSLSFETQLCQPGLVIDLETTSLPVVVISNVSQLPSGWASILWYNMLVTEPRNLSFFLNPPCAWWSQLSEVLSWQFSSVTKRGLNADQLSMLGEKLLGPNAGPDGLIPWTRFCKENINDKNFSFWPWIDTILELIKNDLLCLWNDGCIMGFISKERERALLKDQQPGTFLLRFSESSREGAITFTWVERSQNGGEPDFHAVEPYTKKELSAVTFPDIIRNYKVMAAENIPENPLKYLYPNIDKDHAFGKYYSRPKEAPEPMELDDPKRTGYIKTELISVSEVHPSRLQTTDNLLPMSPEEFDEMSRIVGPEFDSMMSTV
Method: as §1, §2
Compounds from the NCI 2000 diversity set were screened for inhibition of Stat3 signaling in an in vitro DNA-binding activity assay based on analysis by electrophoretic mobility shift assay (EMSA). […]

[3] = test system: Stat5; assay: In vitro Stat5 DNA-binding activity assay, EMSA with MGFe probe; design: species or system mouse; details: pre-incubated 30 min before MGFe probe
Method: as §1
Nuclear extract preparation and gel shift assays—Nuclear extract preparation from NIH3T3 stimulated by rhIL-6, NIH3T3/hEGFR stimulated by rhEGF, v-Src-transformed fibroblasts (NIH3T3/v-Src) or tumor cell lines and electrophoretic mobility shift assay were carried out as previously described (Turkson et al., 1998; Garcia et al., 1997; Yu et al., 1995). […]

[4] = biological target: T3, E2F1 (Homo sapiens, UniProt Q01094); assay: In vitro E2F1 DNA-binding activity assay, EMSA with DHFR promoter probe; details: cell lysates pre-incubated with compound before DHFR promoter probe
T3 construct: made in house; host or cells: Sf-9 insect cells infected with baculovirus
Method: as §1
In control studies, the effect of PLATINUM-401 was evaluated on the DNA-binding activity of the E2F1 protein that is unrelated to STATs.

[5] = biological target: T1, Stat3; details: Turkson et al., 2004b; cited from earlier work

T1 sequence (P42227 2-770 limits assumed): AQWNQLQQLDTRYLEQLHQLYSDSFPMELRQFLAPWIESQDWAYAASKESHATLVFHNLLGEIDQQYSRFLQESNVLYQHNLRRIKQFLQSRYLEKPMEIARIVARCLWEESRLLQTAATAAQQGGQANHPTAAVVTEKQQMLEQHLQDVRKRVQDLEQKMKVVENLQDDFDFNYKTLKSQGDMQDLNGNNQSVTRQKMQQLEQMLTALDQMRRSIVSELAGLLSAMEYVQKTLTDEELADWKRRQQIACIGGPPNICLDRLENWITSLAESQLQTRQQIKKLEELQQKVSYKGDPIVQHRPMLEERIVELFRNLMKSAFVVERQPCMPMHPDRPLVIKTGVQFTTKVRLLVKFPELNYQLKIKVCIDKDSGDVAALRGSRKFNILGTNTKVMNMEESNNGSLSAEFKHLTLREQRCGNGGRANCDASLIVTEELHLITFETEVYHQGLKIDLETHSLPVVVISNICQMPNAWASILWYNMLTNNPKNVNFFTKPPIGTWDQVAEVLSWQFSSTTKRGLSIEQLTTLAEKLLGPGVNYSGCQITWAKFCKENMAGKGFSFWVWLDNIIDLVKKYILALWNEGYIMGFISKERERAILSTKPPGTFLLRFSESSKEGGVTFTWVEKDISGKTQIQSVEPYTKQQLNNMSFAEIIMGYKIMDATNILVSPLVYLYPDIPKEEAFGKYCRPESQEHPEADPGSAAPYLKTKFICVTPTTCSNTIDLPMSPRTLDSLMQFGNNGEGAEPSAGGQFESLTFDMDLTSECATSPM
T3 sequence (Q01094 whole entry, species assumed): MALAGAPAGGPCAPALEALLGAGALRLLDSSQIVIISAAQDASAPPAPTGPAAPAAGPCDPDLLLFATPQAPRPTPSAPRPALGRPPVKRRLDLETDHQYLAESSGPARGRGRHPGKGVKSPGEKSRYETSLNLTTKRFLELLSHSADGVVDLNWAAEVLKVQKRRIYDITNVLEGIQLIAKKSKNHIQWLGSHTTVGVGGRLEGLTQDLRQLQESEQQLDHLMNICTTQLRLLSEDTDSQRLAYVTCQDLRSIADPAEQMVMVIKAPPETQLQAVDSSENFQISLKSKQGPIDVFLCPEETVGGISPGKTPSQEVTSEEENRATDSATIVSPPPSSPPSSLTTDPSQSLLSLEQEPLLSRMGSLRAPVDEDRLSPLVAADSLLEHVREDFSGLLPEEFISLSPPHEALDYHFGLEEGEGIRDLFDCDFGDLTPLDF

For N.N.[Cl][Pt][Cl] [Cisplatin, reference compound], which “effect on DNA-binding activity of Stat3:Stat3 homodimer” value [1] is on record?
The value was “no detectable effect”.

What about the “effect on DNA-binding activity of Stat1:Stat1 homodimer” value [2] of the same molecule?
Its value is “no detectable effect”.

And the “effect on DNA-binding activity of Stat5:Stat5 dimer” value [3]?
The value was “no detectable effect”.

And the “effect on E2F1 DNA-binding activity” value [4]?
The value was “no detectable effect”.

What about the “effect on Stat3 activity” value [5] of the same molecule?
The value was “no effect”.
